Patent publication US20240366652A1, “OSTEOARTHRITIS PROGRESSION INHIBITOR AND PROGRESSION INHIBITION KIT” (KYUSHU UNIVERSITY, NATIONAL UNIVERSITY CORPORATION, priority 2021, published 2024)

Assays:
[1] = tested on: IL6; assay: IL6 mRNA expression in LPS-stimulated human OA cartilage cells (quantitative real-time PCR); format: cell-based; conditions: Amlexanox 100 μM and/or hyaluronic acid 1 mg/mL, 48 hours, LPS 10 μg/mL 6 hours, GAPDH internal standard
Protocol: (§1) Human cartilage cells were isolated and cultured from an excised cartilage fragment that is usually discarded after artificial knee joint replacement surgery. All donors provided consent to participate in the clinical research approved by the Ethics Review Committee. Due consideration was given to personal information of all donors in handling. Donor's knee joints were OA grade (Kellgren-lawrence) III to IV on X-rays.
(§2) Amlexanox (concentration in medium: 100 μM) and hyaluronic acid (concentration in medium: 1 mg/mL, weight-average molecular weight: 500,000 or more and 1,490,000 or less) were added to human OA cartilage cells and incubated for 48 hours. As a control, those that had been incubated for 48 hours without any administration, and those that were administered with Amlexanox (concentration in medium: 100 μM) and hyaluronic acid (concentration in medium: 1 mg/mL, weight-average molecular weight: 500,000 or more and 1,490,000 or less) and incubated for 48 hours were also prepared.
(§3) Human OA cartilage cells into which Amlexanox and hyaluronic acid were added were stimulated with lipopolysaccharide (LPS) (concentration in medium: 10 μg/mL) and incubated for 6 hours. Thereafter, mRNA was recovered from the above cells. After reverse transcription, quantitative real-time PCR was performed using LightCycler 2.0 system (Roche). GAPDH was used as an internal standard.

[2] = tested on: MMP13; assay: MMP13 mRNA expression in LPS-stimulated human OA cartilage cells (quantitative real-time PCR); format: cell-based; conditions: Amlexanox 100 μM and/or hyaluronic acid 1 mg/mL, 48 hours, LPS 10 μg/mL 6 hours, GAPDH internal standard
Protocol: as §1, §2, §3

[3] = tested on: ADAMTS4; assay: ADAMTS4 mRNA expression in LPS-stimulated human OA cartilage cells (quantitative real-time PCR); format: cell-based; conditions: Amlexanox 100 μM and/or hyaluronic acid 1 mg/mL, 48 hours, LPS 10 μg/mL 6 hours, GAPDH internal standard
Protocol: as §1, §2, §3

[4] = tested on: OA-induced mice (DMM model); assay: Cartilage degeneration in OA-induced mice (DMM model), OARSI histopathological score after intraarticular administration; format: in vivo; conditions: intraarticular 10 μL every 5 days for 8 weeks, Amlexanox 100 μM, hyaluronic acid 10 mg/mL, versus physiological saline group, 8 weeks after surgery
Protocol: OA was induced in 12-week-old male mice (wild type mice and GRK5KO mouse) by removing the ligament, which connects and secures the medial meniscus to the tibia, to cause the knee joint instability (DMM model) (hereinafter, referred to as a “DMM group” in some cases). In addition, as a control, mice subjected to a sham operation by the same method without removing the ligament were also prepared (hereinafter, referred to as a “sham group” in some cases). Subsequently, immediately after the OA induction, four groups were classified as follows: a group administered with physiological saline (10 μL) every 5 days for 8 weeks; a group administered with a hyaluronic acid solution (10 mg/mL, 10 μL); a group administered with an Amlexanox solution (100 μM, 10 μL), a group administered with a mixed solution (10 μL) of
Amlexanox (100 μM) and hyaluronic acid (10 mg/mL) (see FIG. 2A). Knee joint tissue sections of each group at a time point of 8 weeks after OA induction surgery were stained with safranin O. The results are shown in FIG. 2B (staining image).
In addition, the severity degree of OA was quantified by evaluating the stained sections based on histopathological grade recommended by OARSI.
Using the same method as in Example 2, a mixed solution of Amlexanox (100 μM) and hyaluronic acid (10 mg/mL) was administered to OA-induced mice every […] for 8 weeks (see FIG. 3A). […]

[5] = after intraarticular administration; cited from earlier work
[6] = tested on: GRK5; conditions: reported in Reference 2; cited from earlier work

## CC(C)c1ccc2oc3nc(N)c(C(=O)O)cc3c(=O)c2c1 [Amlexanox, 2-amino-7-isopropyl-5-oxo-5H-[1]benzopyrano [2,3-b]-pyridine-3-carboxylic acid]
[1]
  IL6 expression, control ratio: 32.99%
[2]
  MMP13 expression, control ratio: 43.83%
[3]
  ADAMTS4 expression, control ratio: 42.04%
[4]
  OARSI score, control group ratio: 56.95%
[5]
  half-life in joint fluid / in the joint: several hours
[6]
  GRK5 inhibition (selectivity, in words): selectively inhibits GRK5
